From ChEMBL document CHEMBL1681783 (Bioorg Med Chem, 2011)

Columns and labels:
Squalene synthase = target: T1, Squalene synthase (Homo sapiens, UniProt P37268)
T1 sequence (P37268 whole entry): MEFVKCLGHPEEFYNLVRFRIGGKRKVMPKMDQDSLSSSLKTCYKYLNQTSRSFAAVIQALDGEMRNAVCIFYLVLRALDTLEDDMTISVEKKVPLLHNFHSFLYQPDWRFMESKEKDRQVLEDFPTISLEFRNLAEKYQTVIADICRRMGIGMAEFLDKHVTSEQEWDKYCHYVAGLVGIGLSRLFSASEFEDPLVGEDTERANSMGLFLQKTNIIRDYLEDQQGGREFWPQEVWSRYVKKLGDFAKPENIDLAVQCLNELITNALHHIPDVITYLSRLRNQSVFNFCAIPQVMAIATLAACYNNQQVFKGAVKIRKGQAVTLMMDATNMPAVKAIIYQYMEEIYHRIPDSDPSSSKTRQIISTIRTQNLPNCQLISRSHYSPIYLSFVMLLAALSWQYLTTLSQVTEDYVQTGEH
Description: Inhibition of squalene synthase

Rattus norvegicus = species: Rattus norvegicus; test: Inhibition of cholesterol synthesis in rat hepatic cells; assay type: functional, cell-based
[1] = Lipophilicity, log P of the compound; assay type: physicochemical; conditions: octanol/water

SMILES | IC50 (Squalene synthase) [nM] | IC50 (Rattus norvegicus) [nM] | logP [1]
COC(=O)CCC(=O)N(CC(C)(C)C)c1ccc(Cl)cc1C(O)c1ccccc1Cl (configuration not stated) | 1700 |  | 
CC(C)(C)CN(C(=O)CCC(=O)O)c1ccc(Cl)cc1C(O)c1ccccc1Cl (configuration not stated) | 6500 |  | 
CC(C)(C)CN(C(=O)CCC(=O)N1CCC(C(=O)O)CC1)c1ccc(Cl)cc1C(O)c1ccccc1Cl (configuration not stated) | 130 | 250 | 
CN(C)C(=O)C1CCN(C(=O)CCC(=O)N(CC(C)(C)C)c2ccc(Cl)cc2C(O)c2ccccc2Cl)CC1 (configuration not stated) | 97 |  | 
CC(C)(C)CN(C(=O)CCC(=O)N1CCC(C(N)=O)CC1)c1ccc(Cl)cc1C(O)c1ccccc1Cl (configuration not stated) | 280 |  | 
CCOC(=O)C1CCCN(C(=O)CCC(=O)N(CC(C)(C)C)c2ccc(Cl)cc2C(O)c2ccccc2Cl)C1 (configuration not stated) | 410 |  | 
CC(C)(C)CN(C(=O)CCC(=O)NCC1CCCCC1)c1ccc(Cl)cc1C(O)c1ccccc1Cl (configuration not stated) | 220 | 2600 | 
CC(C)(C)CN(C(=O)CCC(=O)N1CCNCC1)c1ccc(Cl)cc1C(O)c1ccccc1Cl (configuration not stated) | 2100 |  | 
CC(C)(C)CN(C(=O)CCC(=O)N1CCN(S(C)(=O)=O)CC1)c1ccc(Cl)cc1C(O)c1ccccc1Cl (configuration not stated) | 260 |  | 
CCOC(=O)C1CCN(C(=O)CCCC(=O)N(CC(C)(C)C)c2ccc(Cl)cc2C(O)c2ccccc2Cl)CC1 (configuration not stated) | > 6000 |  | 
CCOC(=O)C1CCN(C(=O)CC(=O)N(CC(C)(C)C)c2ccc(Cl)cc2C(O)c2ccccc2Cl)CC1 (configuration not stated) | > 600 |  | 
CCOC(=O)C1CCN(C(=O)CCC(=O)N(C)c2ccc(Cl)cc2C(O)c2ccccc2Cl)CC1 (configuration not stated) | 21000 |  | 
CCCN(C(=O)CCC(=O)N1CCC(C(=O)OCC)CC1)c1ccc(Cl)cc1C(O)c1ccccc1Cl (configuration not stated) | 600 |  | 
CCOC(=O)C1CCN(C(=O)CCC(=O)N(CC(C)(C)C)c2ccc(Cl)cc2Cc2ccccc2Cl)CC1 | 650 |  | 
CCOC(=O)C1CCN(C(=O)CCC(=O)N(CC(C)(C)C)c2ccc(Cl)cc2CO)CC1 | > 6000 |  | 
CCOC(=O)C1CCN(C(=O)CCC(=O)N(CC(C)(C)C)c2ccc(Cl)cc2C(O)c2ccccc2)CC1 (configuration not stated) | 770 |  | 
CCOC(=O)C1CCN(C(=O)CCC(=O)N(CC(C)(C)C)c2ccc(Cl)cc2C(O)c2cc(F)ccc2Cl)CC1 (configuration not stated) | > 600 |  | 
CCOC(=O)C1CCN(C(=O)CCC(=O)N(CC(C)(C)C)c2ccc(Cl)cc2C(O)c2cccc(OC)c2)CC1 (configuration not stated) | 210 |  | 

SMILES | IC50 (Squalene synthase) [nM] | IC50 (Rattus norvegicus) [nM] | logP [1]
CCOC(=O)C1CCN(C(=O)CCC(=O)N(CC(C)(C)C)c2ccc(Cl)cc2C(O)c2ccccc2OCC)CC1 (configuration not stated) | 410 |  | 
CCOC(=O)C1CCCN(C(=O)CCC(=O)N(CC(C)(C)C)c2ccc(Cl)cc2C(O)c2ccccc2F)C1 (configuration not stated) | > 600 |  | 
CCOC(=O)C1CCCN(C(=O)CCC(=O)N(CC(C)(C)C)c2ccc(Cl)cc2C(O)c2ccc(F)cc2Cl)C1 (configuration not stated) | > 600 |  | 
CCOC(=O)C1CCCN(C(=O)CCC(=O)N(CC(C)(C)C)c2ccc(Cl)cc2C(O)c2cc(F)ccc2Cl)C1 (configuration not stated) | > 600 |  | 
CCOC(=O)C1CCCN(C(=O)CCC(=O)N(CC(C)(C)C)c2ccc(Cl)cc2C(O)c2cccc(OC)c2)C1 (configuration not stated) | > 600 |  | 
CCOC(=O)C1CCCN(C(=O)CCC(=O)N(CC(C)(C)C)c2ccc(Cl)cc2C(O)c2ccccc2OCC)C1 (configuration not stated) | > 600 |  | 
CC(C)(C)CN(C(=O)CCC(=O)N1CCC(C(=O)O)CC1)c1ccc(Cl)cc1C(O)c1ccccc1F (configuration not stated) | 1700 | > 10000 | 
CC(C)(C)CN(C(=O)CCC(=O)N1CCC(C(=O)O)CC1)c1ccc(Cl)cc1C(O)c1ccc(F)cc1Cl (configuration not stated) | > 600 |  | 
CC(C)(C)CN(C(=O)CCC(=O)N1CCC(C(=O)O)CC1)c1ccc(Cl)cc1C(O)c1cc(F)ccc1Cl (configuration not stated) | > 600 |  | 
COc1cccc(C(O)c2cc(Cl)ccc2N(CC(C)(C)C)C(=O)CCC(=O)N2CCC(C(=O)O)CC2)c1 (configuration not stated) | > 600 |  | 
CCOc1ccccc1C(O)c1cc(Cl)ccc1N(CC(C)(C)C)C(=O)CCC(=O)N1CCC(C(=O)O)CC1 (configuration not stated) | > 600 |  | 
CC(C)(C)CN(C(=O)CCC(=O)N1CCCC(C(=O)O)C1)c1ccc(Cl)cc1C(O)c1ccccc1 (configuration not stated) |  |  | 2.42
CC(C)(C)CN(C(=O)CCC(=O)N1CCCC(C(=O)O)C1)c1ccc(Cl)cc1C(O)c1ccccc1F (configuration not stated) | 290 | 200 | 2.52
CC(C)(C)CN(C(=O)CCC(=O)N1CCCC(C(=O)O)C1)c1ccc(Cl)cc1C(O)c1ccc(F)cc1Cl (configuration not stated) | 190 |  | 3.28
CC(C)(C)CN(C(=O)CCC(=O)N1CCCC(C(=O)O)C1)c1ccc(Cl)cc1C(O)c1cc(F)ccc1Cl (configuration not stated) | > 600 |  | 2.8
COc1ccccc1C(O)c1cc(Cl)ccc1N(CC(C)(C)C)C(=O)CCC(=O)N1CCCC(C(=O)O)C1 (configuration not stated) |  | 84 | 2.81
COc1cccc(C(O)c2cc(Cl)ccc2N(CC(C)(C)C)C(=O)CCC(=O)N2CCCC(C(=O)O)C2)c1 (configuration not stated) | > 600 |  | 2.35
CCOc1ccccc1C(O)c1cc(Cl)ccc1N(CC(C)(C)C)C(=O)CCC(=O)N1CCCC(C(=O)O)C1 (configuration not stated) | > 600 |  | 3.32

Further lines, results first:

IC50 (Squalene synthase) [nM] | IC50 (Rattus norvegicus) [nM] | logP [1] | SMILES
1.3 | 900 |  | CNC(=O)C1CCN(C(=O)CCC(=O)N(CC(C)(C)C)c2ccc(Cl)cc2C(O)c2ccccc2Cl)CC1 (configuration not stated)
2.4 |  |  | CCNC(=O)C1CCN(C(=O)CCC(=O)N(CC(C)(C)C)c2ccc(Cl)cc2C(O)c2ccccc2Cl)CC1 (configuration not stated)
3.7 | 1600 |  | CC(C)NC(=O)C1CCN(C(=O)CCC(=O)N(CC(C)(C)C)c2ccc(Cl)cc2C(O)c2ccccc2Cl)CC1 (configuration not stated)
1.6 | 2000 |  | CCCCNC(=O)C1CCN(C(=O)CCC(=O)N(CC(C)(C)C)c2ccc(Cl)cc2C(O)c2ccccc2Cl)CC1 (configuration not stated)
20 | 270 | 2.98 | CC(C)(C)CN(C(=O)CCC(=O)N1CCCC(C(=O)O)C1)c1ccc(Cl)cc1[C@H](O)c1ccccc1Cl (some centres not stated)
2.3 |  |  | CCOC(=O)N1CCN(C(=O)CCC(=O)N(CC(C)(C)C)c2ccc(Cl)cc2C(O)c2ccccc2Cl)CC1 (configuration not stated)
1.1 |  |  | CC(C)(C)CN(C(=O)CCC(=O)N1CCN(C(=O)OCc2ccccc2)CC1)c1ccc(Cl)cc1C(O)c1ccccc1Cl (configuration not stated)
7.9 | 1400 |  | CCOC(=O)CN1CCN(C(=O)CCC(=O)N(CC(C)(C)C)c2ccc(Cl)cc2C(O)c2ccccc2Cl)CC1 (configuration not stated)
0.45 |  |  | CCOC(=O)C1CCN(C(=O)CCC(=O)N(CC(C)(C)C)c2ccc(Cl)cc2C(O)c2ccccc2F)CC1 (configuration not stated)
7.2 |  |  | CCOC(=O)C1CCN(C(=O)CCC(=O)N(CC(C)(C)C)c2ccc(Cl)cc2C(O)c2cccc(F)c2Cl)CC1 (configuration not stated)
2 |  |  | CCOC(=O)C1CCN(C(=O)CCC(=O)N(CC(C)(C)C)c2ccc(Cl)cc2C(O)c2ccc(F)cc2Cl)CC1 (configuration not stated)
1.1 |  |  | CCOC(=O)C1CCN(C(=O)CCC(=O)N(CC(C)(C)C)c2ccc(Cl)cc2C(O)c2ccccc2OC)CC1 (configuration not stated)
1.1 |  |  | CCOC(=O)C1CCN(C(=O)CCC(=O)N(CC(C)(C)C)c2ccc(Cl)cc2C(O)c2cccc(OC)c2OC)CC1 (configuration not stated)
10 |  |  | CCOC(=O)C1CCN(C(=O)CCC(=O)N(CC(C)(C)C)c2ccc(Cl)cc2C(O)c2cccc3c2OCCO3)CC1 (configuration not stated)
28 |  |  | CCOC(=O)C1CCCN(C(=O)CCC(=O)N(CC(C)(C)C)c2ccc(Cl)cc2C(O)c2cccc(F)c2Cl)C1 (configuration not stated)
2.6 |  |  | CCOC(=O)C1CCCN(C(=O)CCC(=O)N(CC(C)(C)C)c2ccc(Cl)cc2C(O)c2ccccc2OC)C1 (configuration not stated)
1.3 |  |  | CCOC(=O)C1CCCN(C(=O)CCC(=O)N(CC(C)(C)C)c2ccc(Cl)cc2C(O)c2cccc(OC)c2OC)C1 (configuration not stated)
13 |  |  | CCOC(=O)C1CCCN(C(=O)CCC(=O)N(CC(C)(C)C)c2ccc(Cl)cc2C(O)c2cccc3c2OCCO3)C1 (configuration not stated)
17 | 920 |  | CC(C)(C)CN(C(=O)CCC(=O)N1CCC(C(=O)O)CC1)c1ccc(Cl)cc1C(O)c1cccc(F)c1Cl (configuration not stated)
1.7 | 600 |  | COc1ccccc1C(O)c1cc(Cl)ccc1N(CC(C)(C)C)C(=O)CCC(=O)N1CCC(C(=O)O)CC1 (configuration not stated)
2.8 | 1600 |  | COc1cccc(C(O)c2cc(Cl)ccc2N(CC(C)(C)C)C(=O)CCC(=O)N2CCC(C(=O)O)CC2)c1OC (configuration not stated)
7 | 230 |  | CC(C)(C)CN(C(=O)CCC(=O)N1CCC(C(=O)O)CC1)c1ccc(Cl)cc1C(O)c1cccc2c1OCCO2 (configuration not stated)
8.4 | 1300 | 3 | CC(C)(C)CN(C(=O)CCC(=O)N1CCCC(C(=O)O)C1)c1ccc(Cl)cc1C(O)c1cccc(F)c1Cl (configuration not stated)
2 | 1500 | 2.25 | COc1cccc(C(O)c2cc(Cl)ccc2N(CC(C)(C)C)C(=O)CCC(=O)N2CCCC(C(=O)O)C2)c1OC (configuration not stated)
6.8 | 170 | 1.87 | CC(C)(C)CN(C(=O)CCC(=O)N1CCCC(C(=O)O)C1)c1ccc(Cl)cc1C(O)c1cccc2c1OCCO2 (configuration not stated)
